Each structure is given as a SMILES string.

The first experiment concerns the target T1, human orexin-2 receptor (Homo sapiens, UniProt O43614).
T1 construct: expressed in transfected cells; host or cells: CHO cells (G418 selection)
T1 sequence (O43614 1-444): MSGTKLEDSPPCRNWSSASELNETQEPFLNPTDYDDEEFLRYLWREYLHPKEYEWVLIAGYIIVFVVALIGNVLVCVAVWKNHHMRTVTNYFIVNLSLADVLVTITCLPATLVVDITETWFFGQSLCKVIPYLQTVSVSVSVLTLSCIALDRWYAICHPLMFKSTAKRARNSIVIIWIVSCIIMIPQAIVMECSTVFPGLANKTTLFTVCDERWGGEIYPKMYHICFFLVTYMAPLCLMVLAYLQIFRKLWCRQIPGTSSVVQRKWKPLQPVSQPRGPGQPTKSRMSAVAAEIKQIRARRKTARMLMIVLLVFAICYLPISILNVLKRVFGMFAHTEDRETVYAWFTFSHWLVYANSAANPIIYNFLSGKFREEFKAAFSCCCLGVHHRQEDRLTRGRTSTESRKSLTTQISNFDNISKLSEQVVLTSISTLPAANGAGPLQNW
In words: Intracellular calcium (FLIPR) antagonist assay, CHO cells expressing human orexin-2 receptor, 3 nM orexin-A. Format: cell-based. The note with it: CHO, 1 uM compound, orexin-A 3 nM, read-out: OX2R % Inh. @ 1uM. As to the method:
(§1) Antagonistic activities on both orexin receptors (i.e., to identify Orexin Receptor Antagonists) have been measured for each example compound using the in vitro assays (intracellular calcium measurements) as described herein. Other assays may also be used to identify Orexin Receptor Antagonists as would be understood by those of ordinary skill in the art. Chinese hamster ovary (CHO) cells expressing the human orexin-1 receptor and the human orexin-2 receptor, respectively, are grown in culture medium (Ham F-12 with L-Glutamine) containing 300 μg/mL G418, 100 U/mL penicillin, 100 μg/mL streptomycin and 10% heat inactivated fetal calf serum (FCS). The cells are seeded at 20′000 cells/well into 384-well black clear bottom sterile plates (Greiner). The seeded plates are incubated overnight at 37° C. in 5% CO2. Human orexin-A as an agonist is prepared as 1 mM stock solution in MeOH: water (1:1), diluted in HBSS containing 0.1% bovine serum albumin (BSA), NaHC03: 0.375 g/L and 20 mM HEPES for use in the assay at a final concentration of 3 nM.
(§2) Antagonists were prepared as 10 mM stock solution in DMSO, then diluted in 384-well plates using DMSO followed by a transfer of the dilutions into in HBSS containing 0.1% bovine serum albumin (BSA), NaHC03: 0.375 g/L and 20 mM HEPES. On the day of the assay, 50 μL of staining buffer (HBSS containing 1% FCS, 20 mM HEPES, NaHC03: 0.375 g/L, 5 mM probenecid (Sigma) and 3 μM of the fluorescent calcium indicator fluro-4 AM (1 mM stock solution in DMSO, containing 10% pluronic) is added to each well. The 384-well cell-plates are incubated for 50 min at 37° C. in 5% C02 followed by equilibration at RT for 30 min before measurement. Within the Fluorescent Imaging Plate Reader (FLIPR Tetra, Molecular Devices), potential Orexin Receptor Antagonists were added to the plate in a volume of 10 μl/well, incubated for 120 min and finally 10 μL/well of agonist is added. Fluorescence was measured for each well at 1 second intervals, and the height of each fluorescence peak compared to the height of the fluorescence peak induced by 3 nM orexin-A with vehicle in place of antagonist. The IC50 value (the concentration of compound needed to inhibit 50% of the agonistic response) was determined and normalized using the obtained IC50 value of an on-plate reference compound. Optimized conditions were achieved by adjustment of pipetting speed and cell splitting regime. The calculated IC50 values fluctuate depending on the daily cellular assay performance, as is known to those skilled in the art. In the case where IC50 values have been determined several times for the same compound, the geometric mean has been given.
For orientation: Calcium assays in cells follow changes in intracellular calcium, usually with a dye or a luminescent sensor.
Consider `COc1ccc(N2CC[C@@H](C)N(C(=O)c3c(-c4ccccc4)nn4c3COCC4)CC2)cn1` [Example 16], for which the inhibition at 1 µM was determined as 3.3%.

Turning to `C[C@@H]1CN(c2cnc(C(F)(F)F)cn2)CCCN1C(=O)c1c(-c2ccccc2)nn2cccnc12` [Example 91], the inhibition at 1 µM worked out at 74%.

For the compound `C[C@@H]1CCN(c2ccc(C(F)(F)F)cn2)CCN1C(=O)c1nn2c(c1-c1ccccc1)COCC2` [Example 58], the inhibition at 1 µM was found to be 30%.

For the compound `O=C(c1c(-c2ccccc2F)nn2c1COCC2)N1CC2CN(c3ccc(C(F)(F)F)cn3)CC2C1` (stereo not shown) [Example 50], the inhibition at 1 µM was 1.62%.

As for `O=C(c1c(-c2ccc(F)cc2)nn2ccccc12)N1CC2CN(c3nc4cc(Cl)ccc4o3)CC2C1` (stereo not shown) [Example 48], the inhibition at 1 µM is 63.2%.

As for `C[C@@H]1CCN(c2ccc(C(F)(F)F)cn2)CCN1C(=O)c1ccnn1-c1ccccc1` [Example 101], the inhibition at 1 µM is 32%.

Turning to `C[C@@H]1CCN(c2nc3cc(Cl)ccc3o2)CCN1C(=O)c1nn2ccccc2c1-c1ccccc1` [Example 8], the inhibition at 1 µM amounted to 82.7%.

For the compound `C[C@@H]1CCN(c2nc3cc(Cl)ccc3o2)CCN1C(=O)c1c(-c2ncccn2)nn2ccccc12` [Example 61], the inhibition at 1 µM stood at 64%.

Turning to `C[C@@H]1CCN(c2nc3cc(Cl)ccc3o2)CCN1C(=O)c1nn2cccnc2c1-c1ccccc1` [Example 67], the inhibition at 1 µM was 80%.

For `O=C(c1c(-c2ccccc2F)nn2ccccc12)N1CC2CN(c3ccc(C(F)(F)F)cn3)CC2C1` (stereo not shown) [Example 45], the inhibition at 1 µM was 27.1%.

Turning to `Cc1cc(C)nc(N2CC3CN(C(=O)c4nn5ccccc5c4-c4ccc(F)cc4)CC3C2)n1` (stereo not shown) [Example 33], the inhibition at 1 µM amounted to 17.6%.

In the case of `O=C(c1c(-c2ccccc2)nn2ccccc12)N1CCCN(c2nc3cc(Cl)ccc3o2)CC1` [Example 1], the inhibition at 1 µM worked out at 94.9%.

Take `COc1ccc(N2CC[C@@H](C)N(C(=O)c3c(-c4ccccc4)nc4ccccn34)CC2)nc1` [Example 20]: the inhibition at 1 µM came out at 32.2%.

Turning to `Cc1cc(C)nc(N2CC3CN(C(=O)c4c(-c5ccccc5)nn5c4COCC5)CC3C2)n1` (stereo not shown) [Example 41], the inhibition at 1 µM came to 11.5%.

Turning to `Cc1cc(C)nc(N2CC3CN(C(=O)c4c(-c5ccccc5)nc5cc(C(F)(F)F)ccn45)CC3C2)n1` (stereo not shown) [Example 37], the inhibition at 1 µM stood at 46.9%.

As for `C[C@@H]1CCN(c2cnc(C(F)(F)F)cn2)CCN1C(=O)c1nn2c(c1-c1ccccc1)COCC2` [Example 82], the inhibition at 1 µM was determined as 2%.

For `C[C@@H]1CCN(c2ccc(F)cn2)CCN1C(=O)c1c(-c2ccccc2)nn2c1COCC2` [Example 25], the inhibition at 1 µM worked out at 7.7%.

A further experiment addresses T2, human orexin-1 receptor (Homo sapiens, UniProt O43613).
T2 construct: expressed in transfected cells; host or cells: CHO cells (G418 selection)
T2 sequence (O43613 1-425): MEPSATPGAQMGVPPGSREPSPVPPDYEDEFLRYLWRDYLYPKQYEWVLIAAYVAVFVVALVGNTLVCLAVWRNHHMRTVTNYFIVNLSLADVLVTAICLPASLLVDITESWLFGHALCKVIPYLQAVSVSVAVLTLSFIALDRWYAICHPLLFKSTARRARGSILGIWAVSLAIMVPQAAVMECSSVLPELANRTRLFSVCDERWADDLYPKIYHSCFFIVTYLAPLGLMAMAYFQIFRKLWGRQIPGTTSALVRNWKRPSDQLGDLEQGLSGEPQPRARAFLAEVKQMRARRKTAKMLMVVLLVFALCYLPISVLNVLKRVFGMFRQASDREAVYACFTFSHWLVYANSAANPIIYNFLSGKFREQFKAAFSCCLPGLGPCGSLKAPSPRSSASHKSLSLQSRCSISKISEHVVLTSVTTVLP
In words: Intracellular calcium (FLIPR) antagonist assay, CHO cells expressing human orexin-1 receptor, 3 nM orexin-A. Format: cell-based. As to conditions: CHO, 1 uM compound, orexin-A 3 nM, read-out: OXIR % Inh. @ 1 uM. As to the method:
as §1, §2
Consider `COc1ccc(N2CC[C@@H](C)N(C(=O)c3c(-c4ccccc4)nn4c3COCC4)CC2)cn1` [Example 16], for which the inhibition at 1 µM is -21.1%.

`C[C@@H]1CN(c2cnc(C(F)(F)F)cn2)CCCN1C(=O)c1c(-c2ccccc2)nn2cccnc12` [Example 91]: the inhibition at 1 µM was 87%.

As to `C[C@@H]1CCN(c2ccc(C(F)(F)F)cn2)CCN1C(=O)c1nn2c(c1-c1ccccc1)COCC2` [Example 58], the inhibition at 1 µM is 94%.

As to `O=C(c1c(-c2ccccc2F)nn2c1COCC2)N1CC2CN(c3ccc(C(F)(F)F)cn3)CC2C1` (stereo not shown) [Example 50], the inhibition at 1 µM came to 9.55%.

For the compound `O=C(c1c(-c2ccc(F)cc2)nn2ccccc12)N1CC2CN(c3nc4cc(Cl)ccc4o3)CC2C1` (stereo not shown) [Example 48], the inhibition at 1 µM came to 87.1%.

Regarding `C[C@@H]1CCN(c2ccc(C(F)(F)F)cn2)CCN1C(=O)c1ccnn1-c1ccccc1` [Example 101], the inhibition at 1 µM stood at 19%.

Consider `C[C@@H]1CCN(c2nc3cc(Cl)ccc3o2)CCN1C(=O)c1nn2ccccc2c1-c1ccccc1` [Example 8], for which the inhibition at 1 µM came to 98%.

In the case of `C[C@@H]1CCN(c2nc3cc(Cl)ccc3o2)CCN1C(=O)c1c(-c2ncccn2)nn2ccccc12` [Example 61], the inhibition at 1 µM was 100%.

Turning to `C[C@@H]1CCN(c2nc3cc(Cl)ccc3o2)CCN1C(=O)c1nn2cccnc2c1-c1ccccc1` [Example 67], the inhibition at 1 µM stood at 99%.

In the case of `O=C(c1c(-c2ccccc2F)nn2ccccc12)N1CC2CN(c3ccc(C(F)(F)F)cn3)CC2C1` (stereo not shown) [Example 45], the inhibition at 1 µM amounted to 78.2%.

Regarding `Cc1cc(C)nc(N2CC3CN(C(=O)c4nn5ccccc5c4-c4ccc(F)cc4)CC3C2)n1` (stereo not shown) [Example 33], the inhibition at 1 µM stood at 5%.

On to `O=C(c1c(-c2ccccc2)nn2ccccc12)N1CCCN(c2nc3cc(Cl)ccc3o2)CC1` [Example 1], for which the inhibition at 1 µM turned out to be 98.7%.

As to `COc1ccc(N2CC[C@@H](C)N(C(=O)c3c(-c4ccccc4)nc4ccccn34)CC2)nc1` [Example 20], the inhibition at 1 µM worked out at 62.1%.

With `Cc1cc(C)nc(N2CC3CN(C(=O)c4c(-c5ccccc5)nn5c4COCC5)CC3C2)n1` (stereo not shown) [Example 41], the inhibition at 1 µM is 6%.

Take `Cc1cc(C)nc(N2CC3CN(C(=O)c4c(-c5ccccc5)nc5cc(C(F)(F)F)ccn45)CC3C2)n1` (stereo not shown) [Example 37]: the inhibition at 1 µM was found to be 5.33%.

As for `C[C@@H]1CCN(c2cnc(C(F)(F)F)cn2)CCN1C(=O)c1nn2c(c1-c1ccccc1)COCC2` [Example 82], the inhibition at 1 µM stood at 39%.

As to `C[C@@H]1CCN(c2ccc(F)cn2)CCN1C(=O)c1c(-c2ccccc2)nn2c1COCC2` [Example 25], the inhibition at 1 µM came to 11.6%.

The values are drawn from patent publication US20260256807A1, “SUBSTITUTED PYRAZOLES AND IMIDAZOLES AS OREXIN RECEPTOR ANTAGONISTS COMPOSITION, METHODS FOR TREATING NEUROLOGICAL AND PSYCHOLOGICAL DISORDERS” (HAGER BIOSCIENCES, LLC, priority 2022, published 2026).
